Data: US20240269306A1, “B7H4-TARGETED ANTIBODY-DRUG CONJUGATES AND METHODS OF USE THEREOF” (Mersana Therapeutics, Inc., priority 2021, published 2024)
Substitutions are numbered along the chain they refer to. Several values for one entry are separate records, joined by “and”; a condition that tells them apart may be missing. Equal values may be shown once.

What was measured:
[1] = tested on: STING pathway in THP1-Dual cells co-cultured with MX-1 cancer cells; experiment: STING activation, cancer cell/THP1-IRF3-Luciferase reporter cell co-culture assay (Example 36); conditions: 24 hours, concentrations based on payload, read-out: THP1-Dual cells/MX-1 co-cultures EC50
Description: The induction of the STING pathway in immune cells by B7-H4-targeted STING agonist conjugates was evaluated by a cancer cell/THP1-IRF3-Luciferase reporter cell co-culture assay. MX-1 cells were seeded in 96-well CellBind surface tissue culture plates (17,000 cells/well) and allowed to attach for 4 hours in RPMI-1640 medium with 10% FBS and 1% penicillin/streptomycin. […] THP1-Dual™ Cells (InvivoGen) (50,000 cells) were then added to each well and the incubation continued for 24 hours at 37° C. in a humidified atmosphere of 5% CO2. Cell culture supernatants (20 μL) from each incubated sample was added to resuspended QUANTI-Luc (InvivoGen) (50 μL) and the luminescent signal was measured immediately using a SpectraMax M5 plate reader (Molecular Devices). The EC50 values were determined from the dose response curve.

MX-1 cells [2] = experiment: Cell surface binding by FACS, MX-1 cells (Example 32); parameters: species or system human; conditions: mean of two replicate experiments
Description: (§2) MX-1 cells were grown in DMEM:F12K (Life Technologies) with 10% FBS (Life Technologies) and 1% penicillin/streptomycin (Life Technologies). […] For staining, cells were detached by treatment with Accutase cell detachment solution (Innovative Cell Technologies). The detached cells were triturated in media, and plated in 96 well U-bottom plates, at a density of 50,000 cells in medium (75 μL). […] The cells were washed with ice cold PBS (3×), pelleted at 1,000×RCF between each wash step, and resuspended in RPMI-1640 with 2% goat serum (100 μL) and a secondary fluorescently labeled antibody, Alexa Fluor® 647-labelled goat anti-human IgG (5 μg/mL, Life Technologies) for 1 hour on ice. The cells were washed with ice cold PBS (3×) and resuspended in ice cold PBS with 1% paraformaldehyde (100 μL). The fluorescence per cell was determined by analyzing 5,000 cells for each treatment on the flow cytometer. The median fluorescence value for each treatment was plotted, and EC50 values were calculated with Graphpad Prism software by four-parameter curve fitting.
(§3) HEK-293-B7-H4 cells were grown in EMEM (ATCC), 10% FBS, 1% penicillin/streptomycin, and 3 μg/ml puromycin (Life Technologies) and untransfected HEK-293 cells were grown in EMEM, 10% FBS, 1% penicillin/streptomycin. […] Results are mean values for two replicate experiments for each test article.

human B7-H4 [3] = molecular target: T1, human B7-H4 (Homo sapiens, UniProt Q7Z7D3); experiment: ELISA binding of XMT-1603 and XMT-1604 cytotoxic drug conjugates to human B7-H4 protein (Example 29); conditions: Table 8
T1 construct: purchased R&D Systems 6576-B7-050
T1 sequence (Q7Z7D3 25-282): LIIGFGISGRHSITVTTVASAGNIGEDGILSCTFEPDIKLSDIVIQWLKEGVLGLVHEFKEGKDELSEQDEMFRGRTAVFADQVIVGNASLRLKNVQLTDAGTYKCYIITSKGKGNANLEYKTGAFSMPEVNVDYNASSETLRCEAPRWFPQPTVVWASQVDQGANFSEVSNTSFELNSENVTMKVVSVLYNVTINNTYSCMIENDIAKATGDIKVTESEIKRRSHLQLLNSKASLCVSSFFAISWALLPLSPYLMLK
Description: (§4) Recombinant human B7-H4 protein (R&D Systems #6576-B7-050) was coated onto the surface of each well of a 96-well plate by incubation with the peptide (1 μg/mL in PBS), overnight at 4° C. The wells were then blocked by incubation with BSA (5% in PBS, containing 0.1% Tween 20 (PBST)) for 1 hour at room temperature. […] The unbound test article was removed by washing with PBST (3×). A secondary anti-human IgG conjugated to HRP (0.16 μg/mL in PBST) was incubated in each well for 1 hour. The unbound secondary antibody was removed by washing with PBST (3×). The HRP substrate, TMB, was added to each well and incubated until a blue color was visible. The reaction was quenched by the addition of sulfuric acid (0.2 N, 100 μL). […] The values were plotted using GraphPad Prism software. EC50 values were determined by four-parameter curve fitting.

mouse B7-H4 = molecular target: T2, mouse B7-H4 (Mus musculus, UniProt Q7TSP5); experiment: ELISA binding to mouse B7-H4 (Example 30); conditions: mean of two studies
T2 construct: purchased Creative Biomart VTCN1-1519R
T2 sequence (Q7TSP5 25-257): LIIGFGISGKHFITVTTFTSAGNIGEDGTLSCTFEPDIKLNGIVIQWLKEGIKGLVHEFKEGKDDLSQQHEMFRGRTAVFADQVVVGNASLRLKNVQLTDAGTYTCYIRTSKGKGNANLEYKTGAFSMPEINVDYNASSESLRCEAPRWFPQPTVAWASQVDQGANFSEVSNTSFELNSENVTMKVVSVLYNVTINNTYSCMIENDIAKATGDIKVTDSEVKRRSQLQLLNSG
Description: as §4
(§5) Proteins used in these studies were: human B7-H4 (R&D Systems; 6576-B7-050), monkey B7-H4 (Creative Biomart; VTCN1-1519R), rat (R&D Systems 10085-B7), and mouse (Creative Biomart; VTCN1-1519R).

[4] = tested on: HEK-293-WT cells cocultured with CTV-labeled CD3+ T cells; experiment: T-cell suppression coculture assay with HEK-293-WT cells (Example 27); type: cell-based, human; conditions: HEK-293-WT coculture, antibody 50 nM, 4 day
Description: (§1) Next day, the media was removed and replaced with T cell media (Iscove's Modified Dulbecco's Medium with 10% FBS and 5% penicillin/streptomycin). […] Frozen human PBMCs (2.5×10^7 cells) were thawed and enriched for CD3+ T cells using Easy Step™ human T cell isolation kit (StemCell Technologies). CD3+ T cells were labeled with CellTrace™ Violet cell proliferation kit (CTV; ThermoFisher Scientific) and adjusted to 2×10^6 cells/mL. CTV-labeled T cells (1×10^5) were added to test article-treated HEK-293-WT or HEK-293-B7-H4 cells, stimulated with Immunocult™ Human CD3/CD28 T Cell Activator (StemCell Technologies), and incubated at 37° C. in 5% CO2. After 4 day of coculture of HEK-293-WT or HEK-293-B7-H4 with CTV-labeled T cells, T cell proliferation was assessed by the dilution of CTV-labeled T cells using flow cytometry. Cocultured cells (CTV-labeled T cells and HEK-293-WT/HEK-293-B7-H4 cells) from each group were transferred to a U-bottom 96-well plate, washed with PBS, stained with live/dead Fixable Aqua dead cell staining dye (ThermoFisher Scientific), and then additionally stained with fluorophore conjugated target specific or isotype control antibodies (FITC anti-human CD45, PE/Cy7 anti-human CD4, PE anti-human CD8). Cells were fixed and surface expression of the proteins of interest was determined by flow cytometry analysis on a MACSQuant flow cytometer. Data analysis was performed by FlowJo software using the following hierarchical flow: 1) single gate, 2) live cells, 3) CD45+ cells, and 4) diluted CTV (compared to unstimulated T cells). Percentage of proliferating CD4+ or CD8+ T cell were calculated using CD4+ combined with diluted CTV and CD8+ combined with diluted CTV, respectively. Data represent the mean (±standard deviation) of triplicate wells for each test article. Table 6 gives the population (%) of live cells, CD45+, proliferating CD4+ T cells, and proliferating CD8+ T cells for each condition.

human B7-H4 [5] = molecular target: T1, human B7-H4; experiment: ELISA binding of variant B7-H4 cytotoxic drug conjugates to B7-H4 protein (Example 28); conditions: Table 7
Description: as §4

human B7-H4 [6] = molecular target: T1, human B7-H4; experiment: ELISA binding of STING agonist conjugates to recombinant human B7-H4 protein (Example 34); conditions: Table 13
Description: as §4

rat B7-H4 = molecular target: T3, rat B7-H4 (Rattus norvegicus, UniProt Q501W4); experiment: ELISA binding to rat B7-H4 (Example 30); conditions: mean of two studies
T3 construct: purchased R&D Systems 10085-B7
T3 sequence (Q501W4 25-257): T2 sequence (Q7TSP5 25-257) with R109H, Q228E
Description: as §4, §5

[7] = tested on: HEK-293-B7-H4 cells cocultured with CTV-labeled CD3+ T cells; experiment: T-cell suppression coculture assay with HEK-293-B7-H4 cells (Example 27); type: cell-based, human; conditions: HEK-293-B7-H4 coculture; antibody 50 nM; 4 day; mean ± SD; two lines of values
Description: as §1

[8] = tested on: HEK-293 cells stably transfected with human B7-H4; experiment: Cell surface binding by FACS, HEK-293-B7-H4 cells (Example 32); conditions: mean of two replicate experiments
Description: as §2, §3

human B7-H4 [9] = molecular target: T1, human B7-H4; experiment: ELISA binding to human B7-H4 (Example 30); conditions: mean of two studies
Description: as §4, §5

monkey B7-H4 = experiment: ELISA binding to monkey B7-H4 (Example 30); conditions: mean of two studies
Description: as §4, §5

MX-1 cells [10] = experiment: Cell surface binding of STING agonist conjugates by FACS, MX-1 cells (Example 35); parameters: species or system human; conditions: Table 14
Description: as §2

[11] = tested on: untransfected HEK-293 cells; experiment: Cell surface binding by FACS, untransfected HEK-293 cells (Example 32); conditions: mean of two replicate experiments
Description: as §2, §3

| Molecule | EC50 [1] [nM] | EC50 (MX-1 cells [2]) [nM] | EC50 (human B7-H4 [3]) [nM] | EC50 (mouse B7-H4) [nM] | % Population Live cells (gated on single) ([4]; mean ± SD of triplicate wells, two unexplained lines of values per population) | % Population CD45+ (gated on live cells) ([4]; mean ± SD, two lines of values) | % Population Proliferating CD4+ (gated on single/live cells/CD45+) ([4]; mean ± SD, two lines of values) | % Population Proliferating CD8+ (gated on single/live cells/CD45+) ([4]; mean ± SD, two lines of values) | EC50 (human B7-H4 [5]) [nM] | EC50 (human B7-H4 [6]) [nM] | EC50 (rat B7-H4) [nM] | % Population CD45+ (gated on live cells) [7] | % Population Live cells (gated on single) [7] | % Population Proliferating CD8+ (gated on single/live cells/CD45+) [7] | EC50 [8] [nM] | EC50 (human B7-H4 [9]) [nM] | EC50 (monkey B7-H4) [nM] | EC50 (MX-1 cells [10]) [nM] | EC50 [11] [nM] |
| --- | --- | --- | --- | --- | --- | --- | --- | --- | --- | --- | --- | --- | --- | --- | --- | --- | --- | --- | --- |
| Cc1ccc2c(=O)c3cccc(CC(=O)O)c3oc2c1C [STING agonist] | > 100 |  |  |  |  |  |  |  |  |  |  |  |  |  |  |  |  |  |  |
| Palivizumab |  | > 100 | > 100 | > 100 | 78.2 ± 0.4% and 85.6 ± 11.2% | 69.0 ± 5.1% and 43.0 ± 11.0% | 32.9 ± 2.6% and 22.4 ± 2.3% | 9.5 ± 1.6% and 3.5 ± 0.8% | > 100 | > 100 | > 100 | 48.3 ± 4.1% and 50.1 ± 3.7% | 80.1 ± 2.0% and 95.5 ± 2.8% | 3.4 ± 0.5% and 1.1 ± 0.6% | > 100 | > 100 | > 100 | > 200 | > 100 |
